Measurements from patent US20240391978A1, “APOLIPOPROTEIN FUSION PROTEINS FOR CELL-SPECIFIC IMMUNE REGULATION” (BIO-TRIP B.V., priority 2021, published 2024).

Legend:
Macrophages [1] = experiment: Seahorse metabolic analyses of IL4-trained cells; type: cell-based, human; details: IL4 training on day 0, measured on day 6
Method: Seahorse metabolic analyses: Macrophages were harvested as described above. The cells were resuspended in RPMI+++ and seeded into overnight-calibrated cartridges at 10^5 cells per well. After adhering for 1 hour, the medium was changed to assay medium (Agilent; see below) and the cells were incubated for 1 hour at 37° C. in ambient C02 levels. Oxygen consumption rates (OCR) and extracellular acidification rates (ECAR) were measured as proxies for glycolytic and […] metabolism, using a Seahorse XF Glycolysis Stress Test kit or a Seahorse XF Cell Mito Stress Test kit (both Agilent; measurements performed according to manufacturer's instructions).

TNF = experiment: ChIP-qPCR of H3K9me3 at TNF; type: cell-based, human; details: IL4-induced trained immunity
Method: Chromatin immunoprecipitation: Macrophages were harvested as described above and resuspended in RPMI+++. The cells were fixed for 10 minutes in 1% methanol-free formaldehyde. The reaction was then quenched for 3 minutes by adding 125 mM glycine. The fixed cells were washed three times with ice-cold PBS and lysed at approximately 15*10^6 cells/ml in lysis buffer (20 mM HEPES pH 7.6, 1% SDS, 1× protease inhibitor cocktail (PIC; Roche)), sonicated (Bioruptor Pico, Diagenode), and centrifuged (10 minutes, 13000 rpm, RT).
Aliquots of chromatin were de-crosslinked in 0.5×TBE buffer (supplemented with 0.5 mg/ml proteinase K (Qiagen)) for 1 hour at 65° C. and run on a 1% agarose gel to confirm target fragment size of 200-800 bp.
The remaining chromatin was divided into ChIP and input samples. ChIP samples were diluted 10× in dilution buffer (16.7 mM Tris pH 8.0, 1.0% Triton, 1.2 mM EDTA, 167 mM NaCl, 1×PIC in MilliQ) and 1 μg of ChIP-grade antibody (Diagenode) was added. The samples were rotated overnight at 4° C.
Magnetic protein A/G beads (Dynabeads) were washed 2 times in dilution buffer supplemented with 0.15% SDS and 0.1% BSA. The washed beads were added to the ChIP samples and rotated at 4° C. for 1 hour. […]

Macrophages [2] = experiment: Phagocytosis assay; type: cell-based, human; details: IL4-trained cells vs untrained controls; data not shown
Method: Phagocytosis assay: Macrophages were harvested as described above and incubated at 37° C. for 1 hour with FITC-labeled Candida albicans (kindly provided by Dr. Martin Jaeger, Radboudumc) at an MOI of 1:5. The cells were washed 2 times with ice-cold PBA and kept on ice to halt the phagocytosis. The cells were stained for CD45 (table 3) during 30 minutes in the dark at 4° C. Following two washes, trypan blue was added to a final concentration of 0.01% to quench extracellular FITC-Candida. The cells were then acquired on a Cytoflex flow cytometer.
During data analysis, CD45+ events were first selected to remove Candida-only events. Single cells were then gated on as described above and the percentage of Candida-FITC positive macrophages in each sample was calculated.

primary human monocytes = experiment: In vitro model of trained immunity in primary human monocytes; type: cell-based
From the text: In vitro model of trained immunity in primary human monocytes: To induce trained immunity in primary human monocytes, a previously optimized and published method was used (Dominguez-Andres, J. et al. In vitro induction of trained immunity in adherent human monocytes. STAR Protoc 2, 100365, doi:10.1016/j.xpro.2021.100365 (2021); van Lier, D., Geven, C., Leijte, G. P. & Pickkers, P. Experimental human endotoxemia as a model of systemic inflammation. Biochimie 159, 99-106, doi:10.1016/j.biochi.2018.06.014 (2019)). Briefly: monocytes were adhered to a flat-bottom cell culture plate for 1 hour and washed with warm PBS to remove any non-adherent cells and cell debris. Then, they were stimulated (“trained”) for 24 hours with one of the stimuli detailed in Table 1, or medium only (“untrained” control).
For pharmacological inhibition experiments, the monocytes were pre-incubated for 1 hour with one of the inhibitors described in Table 2 before addition of the training stimulus.
Following the initial 24-hour stimulation, the cells were washed with warm PBS and warm cell culture medium was added. The monocytes were then allowed to rest and differentiate into macrophages for 5 days. On day 6, the induction of trained immunity was assessed. To this end, the cells were typically re-stimulated with LPS for an additional 24 hours to elicit cytokine production. The supernatants were collected and stored at −20° C. until further analysis, e.g. with ELISA for IL6 and TNF.
Cytokine and lactate measurements: TNF, IL6, and IL1Ra were measured in cell culture supernatants using duoset ELISA kits (R&D systems), according to the manufacturer's instructions. For lactate measurements, a fluorometric assay was used. 30 μl sample, medium control, or known standard was added to a black 96-well plate. Then, 30 μl reaction mix (PBS pH 7.4, horse radish peroxidase (0.2 U/ml), lactate oxidase (2 U/ml), Amplex red (100 μM; Fisher scientific)) was added and the reaction was incubated for 20 minutes in the dark at RT. Immediately thereafter, fluorescence was measured at 530/25 nm and 590/35 nm. Gen5 software (v3.03, BioTek) was used in conjunction with Microsoft Excel to calculate cytokine and lactate concentrations in the original samples.

IL4: recombinant human interleukin 4
FCCP-triggered maximum respiration rate (Macrophages [1]): significantly augmented
basal glycolysis (Macrophages [1]): trend towards higher basal glycolysis
baseline respiration rate (Macrophages [1]): significantly augmented
oligomycin-triggered maximum glycolytic capacity (Macrophages [1]): significant increase
H3K9me3 at TNF (AUC analysis of primer pairs) (TNF): a decrease of H3K9me3
phagocytosis of heat-killed Candida albicans (Macrophages [2]): slightly less effective at phagocytosing heat-killed Candida albicans than untrained controls
induction of trained immunity (TNF and IL6 after LPS re-stimulation on day 6) (primary human monocytes; 24 hours training, 5-day rest, LPS 24 hours): induced a trained immunity phenotype on day 6
lactate at baseline of trained cells (primary human monocytes; IL4-trained cells, day 6, data not shown): produced more lactate at baseline
effect on β-glucan-induced trained immunity (primary human monocytes; IL4 added in the first 24 hours with β-glucan): did not inhibit the training effect
